Reference: the NIST ThermoML archive (doi:10.1016/j.jct.2018.02.013)
Numbers after ± are expanded uncertainties.

Key:
[1] = wn = mass fraction of the nth substance listed; settings: 101 kPa, Liquid; for mass density: Vibrating tube method; for viscosity: Cone and plate viscometry; for thermal conductivity: transient hot wire; for electrical conductivity: Direct current cell with electrodes
[2] = molar heat capacity at constant pressure; wn = mass fraction of the nth substance listed; settings: 101 kPa, Liquid, Small sample (50 mg) DSC

CCCCCC(=O)[O-].CCCCCCCCCCCCCC[P+](CCCCCC)(CCCCCC)CCCCCC [trihexyl(tetradecyl)phosphonium hexanoate] + O
w2 = 0.1583
Settings | electrical conductivity [S/m] | mass density [kg/m3] | molar heat capacity at constant pressure [J/K/mol] | thermal conductivity [W/m/K] | viscosity [mPa·s]
[1], 298.15 K | – | 905 ± 1.9 | – | – | –
[1], 298.2 K | – | – | – | – | 79.44 ± 4.9
[1], 298.75 K | – | – | – | 0.1871 ± 0.01 | –
[1], 299.4 K | 0.0753 ± 0.0034 | – | – | – | –
[1], 303.15 K | – | 901.7 ± 1.9 | – | – | –
[1], 303.2 K | – | – | – | – | 63.83 ± 3.9
[1], 304 K | 0.0926 ± 0.004 | – | – | – | –
[1], 307.76 K | – | – | – | 0.1858 ± 0.0093 | –
[1], 308.1 K | 0.11 ± 0.0047 | – | – | – | –
[1], 308.2 K | – | – | – | – | 51.41 ± 3.1
[1], 313.15 K | – | 894.6 ± 1.9 | – | – | –
[1], 313.2 K | – | – | – | – | 41.45 ± 2.5
[1], 313.9 K | 0.132 ± 0.0056 | – | – | – | –
[1], 317.72 K | – | – | – | 0.1838 ± 0.01 | –
[1], 318.2 K | – | – | – | – | 34.56 ± 2.1
[1], 318.4 K | 0.16 ± 0.0068 | – | – | – | –
[1], 323.15 K | – | 888 ± 1.8 | – | – | –
[1], 323.2 K | – | – | – | – | 29.8 ± 1.8
[1], 323.6 K | 0.184 ± 0.0077 | – | – | – | –
[1], 327.36 K | – | – | – | 0.1824 ± 0.01 | –
[1], 328 K | 0.217 ± 0.0091 | – | – | – | –
[1], 328.2 K | – | – | – | – | 24.98 ± 1.5
[1], 333.15 K | – | 880.5 ± 1.8 | – | – | –
[1], 333.2 K | – | – | – | – | 20.36 ± 1.2
[1], 333.6 K | 0.252 ± 0.011 | – | – | – | –
[1], 337.88 K | – | – | – | 0.1814 ± 0.01 | –
[1], 338.2 K | – | – | – | – | 17.31 ± 1.1
[1], 338.9 K | 0.297 ± 0.012 | – | – | – | –
[1], 343 K | 0.331 ± 0.014 | – | – | – | –
[1], 343.15 K | – | 874.2 ± 1.8 | – | – | –
[1], 343.2 K | – | – | – | – | 15.85 ± 0.97
[1], 347.85 K | – | – | – | 0.1791 ± 0.011 | –
[1], 348.2 K | – | – | – | – | 13.19 ± 0.81
[1], 349.3 K | 0.391 ± 0.016 | – | – | – | –
[1], 353.15 K | – | 867.8 ± 1.8 | – | – | –
[1], 353.2 K | – | – | – | – | 11.18 ± 0.68
[1], 358.05 K | – | – | – | 0.1774 ± 0.011 | –
[1], 358.2 K | – | – | – | – | 10.4 ± 0.63
[1], 363.15 K | – | 861 ± 1.8 | – | – | –
[1], 363.2 K | – | – | – | – | 9.406 ± 0.57
[1], 368.2 K | – | – | – | – | 8.038 ± 0.49
[2], 298.15 K | – | – | 318.37 ± 20 | – | –
[2], 303.15 K | – | – | 320.43 ± 20 | – | –
[2], 308.15 K | – | – | 323.18 ± 20 | – | –
[2], 313.15 K | – | – | 325.93 ± 20 | – | –
[2], 318.15 K | – | – | 328.97 ± 20 | – | –
[2], 323.15 K | – | – | 332.11 ± 21 | – | –
[2], 328.15 K | – | – | 335.25 ± 21 | – | –
[2], 333.15 K | – | – | 339.17 ± 21 | – | –
[2], 338.15 K | – | – | 343.3 ± 21 | – | –
[2], 343.15 K | – | – | 347.22 ± 21 | – | –
[2], 348.15 K | – | – | 351.44 ± 22 | – | –
[2], 353.15 K | – | – | 353.31 ± 22 | – | –
[2], 358.15 K | – | – | 359 ± 22 | – | –
[2], 363.15 K | – | – | 365.08 ± 22 | – | –

CCCCCCCC(=O)[O-].CCCCCCCCCCCCCC[P+](CCCCCC)(CCCCCC)CCCCCC [trihexyl(tetradecyl)phosphonium octanoate] + O
w2 = 0.1478
Settings | electrical conductivity [S/m] | mass density [kg/m3] | molar heat capacity at constant pressure [J/K/mol] | thermal conductivity [W/m/K] | viscosity [mPa·s]
[1], 298.15 K | – | 901.5 ± 1.9 | – | – | –
[1], 298.2 K | – | – | – | – | 82.71 ± 5.1
[1], 299 K | 0.0415 ± 0.0018 | – | – | – | –
[1], 299.13 K | – | – | – | 0.1872 ± 0.0083 | –
[1], 303.15 K | – | 898.1 ± 1.9 | – | – | –
[1], 303.2 K | – | – | – | – | 70.08 ± 4.3
[1], 304.4 K | 0.051 ± 0.0022 | – | – | – | –
[1], 307.9 K | – | – | – | 0.1852 ± 0.0087 | –
[1], 308.2 K | – | – | – | – | 58.36 ± 3.6
[1], 308.8 K | 0.0603 ± 0.0026 | – | – | – | –
[1], 313.15 K | – | 891.3 ± 1.9 | – | – | –
[1], 313.2 K | – | – | – | – | 48.63 ± 3
[1], 313.6 K | 0.0724 ± 0.0031 | – | – | – | –
[1], 318.01 K | – | – | – | 0.1831 ± 0.0095 | –
[1], 318.2 K | 0.0882 ± 0.0037 | – | – | – | 41.34 ± 2.5
[1], 323.15 K | – | 884.7 ± 1.8 | – | – | –
[1], 323.2 K | – | – | – | – | 35.7 ± 2.2
[1], 323.8 K | 0.101 ± 0.0042 | – | – | – | –
[1], 327.85 K | – | – | – | 0.1821 ± 0.01 | –
[1], 328.2 K | – | – | – | – | 30.82 ± 1.9
[1], 328.6 K | 0.119 ± 0.005 | – | – | – | –
[1], 333.15 K | – | 877.7 ± 1.8 | – | – | –
[1], 333.2 K | – | – | – | – | 26.32 ± 1.6
[1], 333.4 K | 0.139 ± 0.0058 | – | – | – | –
[1], 337.66 K | – | – | – | 0.1801 ± 0.0099 | –
[1], 338.1 K | 0.164 ± 0.0068 | – | – | – | –
[1], 338.2 K | – | – | – | – | 22.53 ± 1.4
[1], 343.15 K | – | 870.8 ± 1.8 | – | – | –
[1], 343.2 K | – | – | – | – | 19.93 ± 1.2
[1], 343.5 K | 0.182 ± 0.0075 | – | – | – | –
[1], 347.48 K | – | – | – | 0.1791 ± 0.01 | –
[1], 348.2 K | – | – | – | – | 17.29 ± 1.1
[1], 349.7 K | 0.215 ± 0.0089 | – | – | – | –
[1], 353.15 K | – | 863.8 ± 1.8 | – | – | –
[1], 353.2 K | – | – | – | – | 15.03 ± 0.92
[1], 358 K | – | – | – | 0.1771 ± 0.012 | –
[1], 358.2 K | – | – | – | – | 13.44 ± 0.82
[1], 363.15 K | – | 857.1 ± 1.8 | – | – | –
[1], 363.2 K | – | – | – | – | 11.86 ± 0.72
[1], 368.2 K | – | – | – | – | 10.87 ± 0.66
[2], 298.15 K | – | – | 319.61 ± 20 | – | –
[2], 303.15 K | – | – | 322.43 ± 20 | – | –
[2], 308.15 K | – | – | 325.15 ± 20 | – | –
[2], 313.15 K | – | – | 326.51 ± 20 | – | –
[2], 318.15 K | – | – | 329.23 ± 20 | – | –
[2], 323.15 K | – | – | 332.16 ± 20 | – | –
[2], 328.15 K | – | – | 335.5 ± 21 | – | –
[2], 333.15 K | – | – | 338.32 ± 21 | – | –
[2], 338.15 K | – | – | 340.52 ± 21 | – | –
[2], 343.15 K | – | – | 342.51 ± 21 | – | –
[2], 348.15 K | – | – | 345.96 ± 21 | – | –
[2], 353.15 K | – | – | 350.45 ± 22 | – | –
[2], 358.15 K | – | – | 353.8 ± 22 | – | –
[2], 363.15 K | – | – | 358.19 ± 22 | – | –
